# Test results as given in patent publication US4603217A, “Ester substituted alkyl-2-(2,6-dichloroanilino)phenyl acetates” (priority 1983, dated 1986).
# How the values were obtained:
# in vivo [1] = settings: mouse, po
# [2] = Rate of hydrolysis in rat plasma; assay type: in vitro ADME; settings: in 1 ml of plasma rat (37° C., incubation for 1 hr)
# Description: **in 1 ml of plasma rat (37° C., incubation for 1 hr)
# carrageenan edema = test: inhibition test of carrageenan edema employing a foot-pad edema method; assay type: in vivo, male Wister rats; settings: for ED50: Rattus norvegicus, male Wister rats, foot-pad edema, read-out: ED50 for inhibition for carrageenan edema; for anti-inflammatory activity compared with DF: relative to DF
# Excerpt: Anti-inflammatory action was investigated according to the method of Winter et al [cf. Pro. Soc. Exp. Biol. Med., 111, 544 (1962)] by the inhibition test of carrageenan edema employing a foot-pad edema method using carrageenan as an irritating agent and male Wister rats weighing 130 to 170 g.
# in vivo [3] = settings: rat, po
# Description: Gastrointestinal ulcer formation action, which is a principal side effect of an acid anti-inflammatory drug, was investigated according to the method of Okabe et al [cf. […] The compounds of the present invention, IM, DF and acemethacin were suspended in 5% Tween-80 solution and administered orally 1 ml/100 g body weight to the rats, respectively. At 6 hrs after the administration, the state of glandstomach was observed by means of a dissecting microscope whether the ulcer having a diameter more than 1 mm was generated or not.
# ultraviolet erythema = test: inhibition action for ultraviolet erythema; assay type: in vivo, male Hartley guinea pigs; design: 2 hs after the irradiation, Average ± standard error / 3 hs after the irradiation, Average ± standard error / 5 hs after the irradiation, Average ± standard error: scale not given here; 2 hs after the irradiation, Rate for inhibition / 3 hs after the irradiation, Rate for inhibition / 5 hs after the irradiation, Rate for inhibition: unit not given here; settings: for 2 hs after the irradiation, Average ± standard error / 2 hs after the irradiation, Rate for inhibition: 2 hs after irradiation; for 2 hs after the irradiation, Average ± standard error / 2 hs after the irradiation, Rate for inhibition / 3 hs after the irradiation, Average ± standard error / 3 hs after the irradiation, Rate for inhibition / 5 hs after the irradiation, Average ± standard error / 5 hs after the irradiation, Rate for inhibition: guinea pigs; for 3 hs after the irradiation, Average ± standard error / 3 hs after the irradiation, Rate for inhibition: 3 hs after irradiation; for 5 hs after the irradiation, Average ± standard error / 5 hs after the irradiation, Rate for inhibition: 5 hs after irradiation; for inhibition effect for ultraviolet erythema compared with IM and DF: relative to IM and DF
# Description: With respect to Compounds 1 to 3, 15 and 21 which are especially useful as an anti-inflammatory drug, IM and DF, inhibition action for ultraviolet erythema was investigated according to the method of Adames et al [cf. Nature, London, 181, 773 (1958)] using guinea pigs as follows: Male Hartley guinea pigs weighing 250 to 350 g were shaved at their sides the day before and two hrs before the ultraviolet irradiation. To the guinea pigs were administered orally Compounds 1 to 3, 15 and 21, IM and DF in amounts as described in Table 2, respectively. To the control group was administered orally only Tween-80. At 1 hr after the time of administration, the guinea pigs were irradiated at their shaved sides by ultraviolet beam for 40 seconds.
# The reaction of the ultraviolet erythema was evaluated at 2 hrs, 3 hrs and 5 hrs after irradiation according to the method of Winder et al [cf. Arch. Int. Pharmacodyn., 116, 261 (1958)]. […] Compounds 1 and 2 show a duration of the pharmacological effect over 5 hrs, contrary to that IM has a duration of 2 hrs.
smiles,measurement,setting,value
"CC(C)=CC(=O)OCCOC(=O)Cc1ccccc1Nc1c(Cl)cccc1Cl [Compound 17, 2-(3,3-Dimethylacryloyloxy)ethyl-2-(2,6-dichloroanilino)phenylacetate]",LD50,in vivo [1],400 mg/kg
same,metabolised at 1 h,[2],78.4%
same,ED50,carrageenan edema,30 mg/kg
same,TD50 at 6 h,in vivo [3],30 mg/kg
"CC=CC=CC(=O)OC(C)OC(=O)Cc1ccccc1Nc1c(Cl)cccc1Cl (stereo not shown) [Compound 21, 1-(2,4-Hexadienoyloxy)ethyl-2-(2,6-dichloroanilino)phenylacetate]",LD50,in vivo [1],790 mg/kg
same,"2 hs after the irradiation, Average ± standard error",ultraviolet erythema; 3 mg/kg orally,1.33 ± 0.211
same,"2 hs after the irradiation, Rate for inhibition",ultraviolet erythema; 3 mg/kg orally,50.2
same,"3 hs after the irradiation, Average ± standard error",ultraviolet erythema; 3 mg/kg orally,3.00 ± 0
same,"3 hs after the irradiation, Rate for inhibition",ultraviolet erythema; 3 mg/kg orally,0
same,"5 hs after the irradiation, Average ± standard error",ultraviolet erythema; 3 mg/kg orally,3.00 ± 0
same,"5 hs after the irradiation, Rate for inhibition",ultraviolet erythema; 3 mg/kg orally,0
same,"2 hs after the irradiation, Average ± standard error",ultraviolet erythema; 10 mg/kg orally,1.50 ± 0.224
same,"2 hs after the irradiation, Rate for inhibition",ultraviolet erythema; 10 mg/kg orally,43.8
same,"3 hs after the irradiation, Average ± standard error",ultraviolet erythema; 10 mg/kg orally,2.50 ± 0.224
same,"3 hs after the irradiation, Rate for inhibition",ultraviolet erythema; 10 mg/kg orally,11.7
same,"5 hs after the irradiation, Average ± standard error",ultraviolet erythema; 10 mg/kg orally,2.50 ± 0.224
same,"5 hs after the irradiation, Rate for inhibition",ultraviolet erythema; 10 mg/kg orally,11.7
same,inhibition effect for ultraviolet erythema compared with IM and DF,ultraviolet erythema,equal inhibition effect for ultraviolet erythema to that of IM and DF
same,metabolised at 1 h,[2],78.2%
same,ED50,carrageenan edema,30 mg/kg
same,TD50 at 6 h,in vivo [3],> 80 mg/kg
"COc1ccc2c(c1)c(CC(=O)OC(C)OC(C)=O)c(C)n2C(=O)c1ccc(Cl)cc1 (stereo not shown) [Compound 8, 1-(Acetoxy)ethyl[1-(p-chlorobenzoyl)-5-methoxy-2-methyl-3-indolyl]acetate]",LD50,in vivo [1],65 mg/kg
same,metabolised at 1 h,[2],99.8%
same,ED50,carrageenan edema,6 mg/kg
same,TD50 at 6 h,in vivo [3],20 mg/kg
"COc1ccc2c(c1)c(CC(=O)OCCOC(=O)C=C(C)CCC=C(C)C)c(C)n2C(=O)c1ccc(Cl)cc1 [Compound 7, 2-(3,7-Dimethyl-2,6-octadienoyloxy)ethyl[1-(p-chlorobenzoyl)-5-methoxy-2-methyl-3-indolyl]acetate]",LD50,in vivo [1],780 mg/kg
same,metabolised at 1 h,[2],60.5%
same,ED50,carrageenan edema,> 20 mg/kg
same,TD50 at 6 h,in vivo [3],> 20 mg/kg
"C/C=C/C(=O)OC(C)OC(=O)Cc1ccccc1Nc1c(Cl)cccc1Cl (stereo not shown) [Compound 19, 1-(Crotonoyloxy)ethyl-2-(2,6-dichloroanilino)phenylacetate]",LD50,in vivo [1],380 mg/kg
same,metabolised at 1 h,[2],86%
same,ED50,carrageenan edema,< 30 mg/kg
same,TD50 at 6 h,in vivo [3],30 mg/kg
"CC=CC=CC(=O)OCCOC(=O)Cc1c(C)n(C(=O)c2ccc(Cl)cc2)c2ccc(OC)cc12 [Compound 6, 2-(2,4-Hexadienoyloxy)ethyl[1-(p-chlorobenzoyl)-5-methoxy-2-methyl-3-indolyl]acetate]",LD50,in vivo [1],85 mg/kg
same,metabolised at 1 h,[2],69%
same,ED50,carrageenan edema,13 mg/kg
same,TD50 at 6 h,in vivo [3],40 mg/kg
C/C=C/C(=O)OCCOC(=O)Cc1c(C)n(C(=O)c2ccc(Cl)cc2)c2ccc(OC)cc12 [Compound 4],LD50,in vivo [1],85 mg/kg
same,metabolised at 1 h,[2],83%
same,ED50,carrageenan edema,15 mg/kg
same,TD50 at 6 h,in vivo [3],40 mg/kg
"CC(C)=CC(=O)OC(C)OC(=O)Cc1ccccc1Nc1c(Cl)cccc1Cl (stereo not shown) [Compound 20, 1-(3,3-Dimethylacryloyloxy)ethyl-2-(2,6-dichloroanilino)phenylacetate]",LD50,in vivo [1],460 mg/kg
same,metabolised at 1 h,[2],80.3%
same,ED50,carrageenan edema,20 mg/kg
same,anti-inflammatory activity compared with DF,carrageenan edema,almost equal anti-inflammatory activity to DF
same,TD50 at 6 h,in vivo [3],30 mg/kg
"CC(=O)OC(C)OC(=O)Cc1ccccc1Nc1c(Cl)cccc1Cl (stereo not shown) [Compound 18, 1-(Acetoxy)ethyl-2-(2,6-dichloroanilino)-phenylacetate]",LD50,in vivo [1],295 mg/kg
same,metabolised at 1 h,[2],96.1%
same,ED50,carrageenan edema,20 mg/kg
same,anti-inflammatory activity compared with DF,carrageenan edema,almost equal anti-inflammatory activity to DF
same,TD50 at 6 h,in vivo [3],30 mg/kg
"COc1ccc2c(c1)c(CC(=O)OCCOC(=O)C=C(C)C)c(C)n2C(=O)c1ccc(Cl)cc1 [Compound 5, 2-(3,3-Dimethylacryloyloxy)ethyl[1-(p-chlorobenzoyl)-5-methoxy-2-methyl-3-indolyl]acetate]",LD50,in vivo [1],62 mg/kg
same,metabolised at 1 h,[2],75.3%
same,ED50,carrageenan edema,15 mg/kg
same,TD50 at 6 h,in vivo [3],40 mg/kg
"CC(=O)OCCOC(=O)Cc1ccccc1Nc1c(Cl)cccc1Cl [Compound 16, 2-(Acetoxy)ethyl-2-(2,6-dichloroanilino)-phenylacetate]",LD50,in vivo [1],610 mg/kg
same,metabolised at 1 h,[2],93.7%
same,ED50,carrageenan edema,20 mg/kg
same,anti-inflammatory activity compared with DF,carrageenan edema,almost equal anti-inflammatory activity to DF
"CC=CC=CC(=O)OCOC(=O)Cc1ccccc1Nc1c(Cl)cccc1Cl [Compound 15, 2,4-Hexadienoyloxymethyl-2-(2,6-dichloroanilino)phenylacetate]",LD50,in vivo [1],500 mg/kg
same,"2 hs after the irradiation, Average ± standard error",ultraviolet erythema; 3 mg/kg orally,1.17 ± 0.167
same,"2 hs after the irradiation, Rate for inhibition",ultraviolet erythema; 3 mg/kg orally,56.2
same,"3 hs after the irradiation, Average ± standard error",ultraviolet erythema; 3 mg/kg orally,2.0 ± 0.258
same,"3 hs after the irradiation, Rate for inhibition",ultraviolet erythema; 3 mg/kg orally,29.3
same,"5 hs after the irradiation, Average ± standard error",ultraviolet erythema; 3 mg/kg orally,3.00 ± 0
same,"5 hs after the irradiation, Rate for inhibition",ultraviolet erythema; 3 mg/kg orally,0
same,"2 hs after the irradiation, Average ± standard error",ultraviolet erythema; 10 mg/kg orally,0.67 ± 0.211
same,"2 hs after the irradiation, Rate for inhibition",ultraviolet erythema; 10 mg/kg orally,74.9
same,"3 hs after the irradiation, Average ± standard error",ultraviolet erythema; 10 mg/kg orally,2.3 ± 0.333
same,"3 hs after the irradiation, Rate for inhibition",ultraviolet erythema; 10 mg/kg orally,18.7
same,"5 hs after the irradiation, Average ± standard error",ultraviolet erythema; 10 mg/kg orally,2.83 ± 0.167
same,"5 hs after the irradiation, Rate for inhibition",ultraviolet erythema; 10 mg/kg orally,0
same,inhibition effect for ultraviolet erythema compared with IM and DF,ultraviolet erythema,equal inhibition effect for ultraviolet erythema to that of IM and DF
same,metabolised at 1 h,[2],80.5%
same,ED50,carrageenan edema,20 mg/kg
same,anti-inflammatory activity compared with DF,carrageenan edema,almost equal anti-inflammatory activity to DF
"CCC(=O)OC(C)OC(=O)Cc1c(C)n(C(=O)c2ccc(Cl)cc2)c2ccc(OC)cc12 (stereo not shown) [Compound 9, 1-(Propionyloxy)ethyl[1-(p-chlorobenzoyl)-5-methoxy-2-methyl-3-indolyl]acetate]",LD50,in vivo [1],65 mg/kg
same,metabolised at 1 h,[2],97.3%
same,ED50,carrageenan edema,6 mg/kg
same,TD50 at 6 h,in vivo [3],20 mg/kg
"COc1ccc2c(c1)c(CC(=O)OCC(=O)O)c(C)n2C(=O)c1ccc(Cl)cc1 [Acemethacin, acemethacin, reference compound]",LD50,in vivo [1],45 mg/kg
same,metabolised at 1 h,[2],4.2%
same,ED50,carrageenan edema,8.3 mg/kg
same,TD50 at 6 h,in vivo [3]; in vivo,17.5 mg/kg
"CC(C)=CC(=O)OCOC(=O)Cc1ccccc1Nc1c(Cl)cccc1Cl [Compound 14, 3,3-Dimethylacryloyloxymethyl-2-(2,6-dichloroanilino)phenylacetate]",LD50,in vivo [1],455 mg/kg
same,metabolised at 1 h,[2],83.4%
same,ED50,carrageenan edema,< 30 mg/kg
same,TD50 at 6 h,in vivo [3],30 mg/kg
"CC=CC=CC(=O)OC(C)OC(=O)Cc1c(C)n(C(=O)c2ccc(Cl)cc2)c2ccc(OC)cc12 (stereo not shown) [Compound 12, 1-(2,4-Hexadienoyloxy)ethyl[1-(p-chlorobenzoyl)-5-methoxy-2-methyl-3-indolyl]acetate]",LD50,in vivo [1],640 mg/kg
same,metabolised at 1 h,[2],80.4%
same,ED50,carrageenan edema,> 20 mg/kg
same,TD50 at 6 h,in vivo [3],> 20 mg/kg
"C/C=C/C(=O)OCOC(=O)Cc1ccccc1Nc1c(Cl)cccc1Cl [Compound 13, Crotonoyloxymethyl-2-(2,6-dichloroanilino)-phenylacetate]",LD50,in vivo [1],400 mg/kg
same,metabolised at 1 h,[2],89.7%
same,ED50,carrageenan edema,< 30 mg/kg
same,TD50 at 6 h,in vivo [3],30 mg/kg
"COc1ccc2c(c1)c(CC(=O)OC(C)OC(=O)C=C(C)C)c(C)n2C(=O)c1ccc(Cl)cc1 (stereo not shown) [Compound 11, 1-(3,3-Dimethylacryloyloxy)ethyl[1-(p-chlorobenzoyl)-5-methoxy-2-methyl-3-indolyl]acetate]",LD50,in vivo [1],45 mg/kg
same,metabolised at 1 h,[2],85.4%
same,ED50,carrageenan edema,15 mg/kg
same,TD50 at 6 h,in vivo [3],10 mg/kg
